From article PMC9920598, “Impact of Starch Binding Domain Fusion on Activities and Starch Product Structure of 4-α-Glucanotransferase” (Molecules, 2023)

Assays:
[1] = test system: T1, SBDGA-TuαGT; experiment: glucose release (GOPOD), Michaelis-Menten fit; assay type: biochemical, Thermoproteus uzoniensis; conditions: disproportionation (maltotriose donor and acceptor); 70 °C, pH 7.0, 50 mM Hepes, 150 mM NaCl; 10 nM enzyme; read-out: SBDGA-TuaGT
T1 construct: gene malQ; E. coli; 69,562 Da; with Glucoamylase (Aspergillus niger), C-terminal CBM20 domain SBDGA
Text: glucose release (GOPOD), Michaelis-Menten fit on SBDGA-TuαGT

[2] = test system: T2, SBDSt1-TuαGT; experiment: glucose release (GOPOD), Michaelis-Menten fit; assay type: biochemical, Thermoproteus uzoniensis; conditions: disproportionation (maltotriose donor and acceptor); 70 °C, pH 7.0, 50 mM Hepes, 150 mM NaCl; 10 nM enzyme; read-out: SBDSt1-TuaGT
T2 construct: gene malQ; E. coli; 68,272 Da; with 4-alpha-glucanotransferase DPE2 (Solanum tuberosum), first CBM20 domain SBDSt1
Text: glucose release (GOPOD), Michaelis-Menten fit on SBDSt1-TuαGT

OC[C@H]1O[C@H](O[C@H]2[C@H](O)[C@@H](O)[C@@H](O[C@H]3[C@H](O)[C@@H](O)C(O)O[C@@H]3CO)O[C@@H]2CO)[C@H](O)[C@@H](O)[C@@H]1O (some centres unmarked) [maltotriose]
Km [1]: 1.4 ± 0.1 µM
Km [2]: 3.5 ± 0.2 µM
